Data reported in patent US11986485B1, “Compositions and methods for treating epilepsy” (POVIVA CORP, priority 2023, dated 2024).
Entries after “also recorded” stand apart in the source; their conditions may differ.

Assay: Hepatic markers (ALT, AST, ALP, GGT, total bilirubin) during 5-week administration
Type: in vivo, humans
Method: The study protocol was registered at the ClinicalTrials.gov (accessed on 7 Apr. 2022) (NCT05346562). […] Following a two-week washout, participants then repeated testing for another five weeks under different conditions. Participants visited the laboratory on 6 occasions in total (3 in each study arm), each time following an overnight fast. The complete course of the study was performed at the Department for Integrative Physiology, University of Split School of Medicine, Split, Croatia. The study design, implementation, and reporting followed the CONSORT guidelines, including the 25-item checklist and a flow diagram. The study was conducted according to the guidelines of the Declaration of Helsinki and was approved by the Ethics Committee of University of Split School of Medicine on 15 Dec. 2021 (Class: 003-08/21-03/0003; Reg. No.: 2181-198-03-04-21-0091). Prior to enrollment in the study, every participant was informed about the procedures, course, and purpose of the research and each of them individually signed an informed written consent.
Each patient visited the laboratory 6 times in total. During each visit, a sample of venous blood was taken from forearm following an overnight fast and sample of urine was obtained. All blood and urine samples were analyzed in the same certified institutional biochemical laboratory, using the standard operating procedures.
Hepatic (ALT, AST, ALP, GGT, and total bilirubin) markers were also measured.
Moreover, these changes we<1 standard deviation and therefore viewed as not clinically meaningful. As noted earlier, >3SD over normative values were classified as an AE.

[1] = 5 weeks administration, versus placebo
[2] = 5 weeks administration, versus placebo, listed as CBD

C=C(C)[C@@H]1CCC(C)=C[C@H]1c1c(O)cc(CCCCC)cc1O [Cannabidiol, 2-[(1R,6R)-6-Isopropenyl-3-methylcyclohex-2-en-1-yl]-5-pentylbenzene-1,3-diol]
plasma alanine transaminase (ALT) [1]: remained effectively unchanged over time
plasma alkaline phosphatase (ALP) [1]: remained effectively unchanged over time
plasma total bilirubin [1]: remained effectively unchanged over time
plasma aspartate transaminase (AST) [2]: higher in the placebo condition; also recorded: remained effectively unchanged over time
plasma gamma-glutamyl transferase (GGT) [2]: slightly higher; also recorded: remained effectively unchanged over time
size of GGT and AST changes (viewed as not clinically meaningful): < 1 standard deviation
